ChEMBL document CHEMBL5344468, “Novel Heterocyclic PAD4 Inhibitors for Treating Diseases” (ACS Med Chem Lett, 2024)

Target: Protein-arginine deiminase type-4 (Homo sapiens, UniProt Q9UM07)
Test: Inhibition of human PAD4 using BAEE as substrate preincubated with enzyme for 30 mins followed by substrate addition for 90 mins and later incubated with phenyl glyoxal for 30 mins by RFMS assay

Sequence of Protein-arginine deiminase type-4 (Q9UM07 whole entry): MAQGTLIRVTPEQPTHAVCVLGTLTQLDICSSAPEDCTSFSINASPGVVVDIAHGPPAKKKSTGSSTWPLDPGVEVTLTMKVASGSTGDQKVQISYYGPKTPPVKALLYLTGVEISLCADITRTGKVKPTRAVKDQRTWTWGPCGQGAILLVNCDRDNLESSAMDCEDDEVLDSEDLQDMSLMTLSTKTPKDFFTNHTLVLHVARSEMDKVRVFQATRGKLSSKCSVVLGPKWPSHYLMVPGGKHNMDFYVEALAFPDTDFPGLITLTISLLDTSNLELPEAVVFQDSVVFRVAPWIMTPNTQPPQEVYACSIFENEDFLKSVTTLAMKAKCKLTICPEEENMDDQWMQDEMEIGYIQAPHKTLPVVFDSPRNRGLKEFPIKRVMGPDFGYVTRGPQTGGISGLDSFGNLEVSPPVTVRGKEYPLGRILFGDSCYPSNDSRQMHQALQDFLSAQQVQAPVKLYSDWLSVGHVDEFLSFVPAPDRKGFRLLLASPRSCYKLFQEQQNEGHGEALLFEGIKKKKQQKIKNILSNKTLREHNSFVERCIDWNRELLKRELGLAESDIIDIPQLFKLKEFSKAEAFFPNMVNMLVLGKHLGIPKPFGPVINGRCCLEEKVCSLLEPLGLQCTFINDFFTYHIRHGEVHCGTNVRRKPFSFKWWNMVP

| Compound | IC50 [nM] |
| --- | --- |
| Cn1c(-c2cc3cccc(OCCc4cnco4)c3n2CC2CC2)nc2cc3c(nc21)CCN(C[C@H](N)CF)C3=O | ≤ 10 |
| Cn1c(-c2cc3cccc(OCCc4ccn[nH]4)c3n2CC2CC2)nc2cc3c(nc21)CCN(C[C@H](N)CF)C3=O | ≤ 10 |
| Cn1c(-c2cc3cccc(OCCc4cnn[nH]4)c3n2CC2CC2)nc2cc3c(nc21)CCN(C[C@H](N)CF)C3=O | ≤ 10 |
| Cn1c(-c2cc3ccnc(OCCn4ccnc4)c3n2CC2CC2)nc2cc3c(nc21)CCN(C[C@H](N)CF)C3=O | ≤ 10 |
| Cn1c(-c2cc3cccc(OCCc4ccon4)c3n2CC2CC2)nc2cc3c(nc21)CCN(C[C@H](N)CF)C3=O | ≤ 10 |
| Cn1c(-c2cc3cccc(OCCc4cccnc4)c3n2CC2CC2)nc2cc3c(nc21)CCN(C[C@H](N)CF)C3=O | ≤ 10 |
